Read-outs that look alike come from different tables or passages of the source.
What was measured:
[1] = biological target: RC maquette-heme B complex; assay: UV/vis pigment binding titration into RC maquette with heme B bound; conditions: RC maquette (His124) with heme B bound to the acceptor site; for Kd: read-out: Dissociation constant (KD)
Procedure: (§1) Ultraviolet/visible absorbance spectroscopy (UV/vis) was carried out on a Varian Cary-50 spectrophotometer. Cofactor binding titrations were performed at room temperature using 1 ml samples of ∼1 μM RC maquette in quartz cuvettes. Protein concentrations were calculated by assuming that Trp and Tyr residues have extinction coefficients at 280 nm (ε280nm) of 5,500 M^−1 cm^−1 and 1,490 M^−1 cm^−1, respectively. Samples of Zn 5-phenyl 15-(p-carboxyphenyl) porphyrin (ZnPCP) and Zn Newkome porphyrin were provided by Tatiana Esipova from the research group of Sergei Vinogradov ([Kodali et al., 2017]). The Zn chlorins SE370 and SE375 were produced by the laboratory of Jonathan Lindsey following previously established methods ([Aravindu et al., 2013]; [Kodali et al., 2017]). Other tetrapyrroles were purchased from Frontier Scientific, Inc. Stock solutions of water-soluble cofactors were prepared in water, and insoluble tetrapyrroles were prepared in dimethyl sulfoxide stock solutions of 100–200 µM concentration. Heme B stock concentrations were measured by hemochrome assay ([Berry and Trumpower, 1987]). Stock concentrations of other tetrapyrrole cofactors were estimated by mass measurements.
(§2) For each titration, a cofactor stock solution was titrated into the protein solution in the cuvette. After each addition of cofactor, at least 10 min were allowed for equilibration before collecting a UV/vis spectrum. Cofactor was typically added in steps of 0.1 equivalents of cofactor per protein until after the binding capacity of the protein appeared to have been reached, at which point 0.2 equivalents of cofactor per protein were added at a time. Binding titrations continued until at total of at least three equivalents of cofactor per protein had been added. To determine dissociation constants, we used the following one-site binding equation: A=ctotɛfree+(ɛbound−ɛfree)KD+Ptot+ctot−(KD+Ptot+ctot)^2−4Ptotctot/2+b (2)
(§3) In Eq. 2, A represents the total absorbance at a given wavelength, c tot is the total cofactor concentration, P tot is the total protein concentration, K D is the dissociation constant, εfree is the extinction coefficient of unbound cofactor in solution, εbound is the extinction coefficient of protein-bound cofactor, and b is the absorbance of the sample when c tot is zero.

[2] = biological target: DH maquette; assay: UV/vis heme binding titration into DH maquette; conditions: ferric heme B into 0.5 µM DH maquette, 50 mM NaCl, 10 mM MOPS pH 7.5; read-out: dissociation constant (KD)
[3] = biological target: RC maquette; assay: UV/vis cofactor binding titration into RC maquette (no heme pre-bound); conditions: for Kd: electron acceptor titrated into 1.1-4.4 µM RC maquette, pH 7.0, fit to one-site binding equation (Eq. 2), read-out: dissociation constant (KD)
Procedure: as §1, §2, §3

[4] = biological target: cyt. b 562; conditions: read-out: KD of CoPPIX for cyt. b 562, cited from earlier work

Kd [3] [nM] | Dissociation constant (KD), result in words [1] | Molecule | other results
 |  | C=CC1=C(C)c2cc3[nH]c(cc4[nH]c(cc5nc(cc1n2)C(C)=C5C=C)c(C)c4CCC(=O)O)c(CCC(=O)O)c3C [Zn protoporphyrin IX (ZnPPIX), Zn protoporphyrin IX] | Kd [1]: 2 µM
< 10 |  | C=CC1=C(C)c2cc3[n-]c(cc4[n-]c(cc5nc(cc1n2)C(C)=C5C=C)c(C)c4CCC(=O)O)c(CCC(=O)O)c3C.[Fe+2] [heme B] | Kd [2]: < 10 nM
250 |  | C=Cc1c(C)c2cc3[nH]c(cc4nc(cc5nc(cc1[nH]2)C(C)=C5CCC(=O)[O-])C(CCC(=O)[O-])=C4C)c(C)c3C=C.[Co+2] [CoPPIX, Co(III) protoporphyrin IX] | Kd ([4]; lower end of literature range, ref Alcala-Torano et al., 2021): 0.045 µM; Kd ([4]; upper end of literature range, ref Sommer et al., 2016): 8.9 µM; CoPPIX affinity relative to heme B affinity of the RC maquette (times weaker) ([3]; KD 250 nM vs <10 nM): about 25 times
 |  | O=C(O)c1ccc(-c2c3nc(c(-c4ccc(C(=O)O)cc4)c4ccc([nH]4)c(-c4ccc(C(=O)O)cc4)c4nc(c(-c5ccc(C(=O)O)cc5)c5ccc2[nH]5)C=C4)C=C3)cc1 [Zn meso-tetra(4-carboxyphenyl) prophyrin] | Kd [1]: 5 µM
< 10 |  | CC(=O)C1=C(C)C2=Cc3c(C(C)=O)c(C)c4[n]3[Fe][n]3c(c(C)c(CCC(=O)O)c3=CC3=NC(=C4)C(C)=C3CCC(=O)O)=CC1=N2 [Fe(III)-DADPIX, Fe(III) 2,4-diacetyl deuteroporphyrin IX] | 
 | no binding detected | Zn chlorin e6 [Zn chlorin e6 (ZnCe6)] | 
 | no binding detected | C1=Cc2nc1c(-c1ccccc1)c1ccc([n-]1)c(-c1ccncc1)c1nc(c(-c3ccccc3)c3ccc([n-]3)c2-c2ccncc2)C=C1.[Zn+2] [Zn meso-di(4-pyridyl)-diphenyl porphyrin] | 
 | no binding detected | CCC1=C(C)c2cc3[n-]c(cc4[n-]c(cc5nc(cc1n2)C(C)=C5CC)c(C)c4CCC(=O)O)c(CCC(=O)O)c3C.[Zn+2] [Zn mesoporphyrin IX (ZnMPIX), Zn mesoporphyrin IX] | 

Source: PMC9532970, “Rational design of photosynthetic reaction center protein maquettes” (Frontiers in Molecular Biosciences, 2022)
